Results as given in patent US6596703B1, “Promotion of wound healing utilizing steroids having reduced deteriorous systemic side effects typical of glucocorticoids, mineralocorticoids and sex steroids” (Jagotec AG, priority 1997, dated 2003).
“Also recorded” adds a separate entry of the source. Like-named read-outs stand apart in the source and are kept apart here.

What was measured:
[1] = test system: murine chronic granulomatous air pouch; assay: Inflammation-induced angiogenesis in the murine chronic granulomatous air pouch, s.c. dosing from induction (day 0) to day 6; assay type: in vivo, mice; settings: for Vascular Index: mean ± s.e.m.; for angiostatic action: administered alone s.c. 1 mg/kg, no heparin, prophylactic dosing (Tables 1, 2)
Experimental: (§1) Chronic granulomatous air pouches were raised in mice by known methods (the reader is referred to PCT/CA94/00207 at page 16 for an experimental method in this regard) utilizing 0.5 ml Freund's Complete adjuvant with 0.1% croton oil injected into 1 day old air pouches. Animals were dosed with saline/0.01% DMSO either subcutaneously (s.c.) into the nape of the neck, or with saline applied topically in 0.1 ml 2.5% hyaluronan. Vascular casts incorporating carmine in gelatin were formed at termination, the tissues weighed dry (mg), papain digested, and the carmine content (μg) determined by spectrophotometric assay. Vascularity was calculated as the Vascularity Index (μg/mg). Results are expressed as means±s.e.m.
Investigation of the action of tetrahydrocortisol, tetrahydrocortisone and tetrahydrocortexolone and the like on inflammation-induced angiogenesis in the murine chronic granulomatous air pouch was pursued. Groups of mice (n=8-13) were dosed with tetrahydrocortisol, tetrahydrocortisone or tetrahydrocortexolone or the like (0.1-3.0 mg/kg in 0.1 ml saline/0.01% DMSO, s.c) daily from induction (day 0) to termination on day 6. Controls were dosed with 0.1 ml saline/0.01% DMSO subcutaneously.
Investigation of the action of angiostatic and anti-inflammatory steroids on inflammation-induced angiogenesis in the murine chronic granulomatous air pouch was pursued. Groups of mice (n=8-13) were treated with the steroids at 1.0 mg/kg (0.1 ml saline/0.01% DMSO, s.c), except of dexamethasone at (0.2 mg/kg), daily from the day of induction (day 0) to termination on day 6. Controls were given 0.1 ml saline/0.01% DMSO s.c. (Key: Tetrahydrocortisol (TH-F), Tetrahydrocortisone (TH-E).

[2] = test system: murine chronic granulomatous air pouch; assay: Inflammatory-induced angiogenesis in the murine chronic granulomatous air pouch, topical application in 2.5% hyaluronan; assay type: in vivo, mice; settings: for effect on angiogenesis: topical application (1 mg/kg) in 2.5% hyaluronan; for Vascular Index: 0.1 ml 2.5% hyaluronan alone topically daily day 0 to day 6
Experimental: as §1
(§2) Investigation of the action of topical tetrahydrocortisol, tetrahydrocortisone, tetrahydrocortexolone and the like on inflammatory-induced angiogenesis in the murine chronic granulomatous air pouch was pursued. Groups of mice (n=8-13) were depilated and the inflammation induced 4 days later. Tetrahydrocortisol (TH-F) and tetrahydrocortisone (TH-E) were applied topically (1 mg/kg) in 2.5% hyaluronan (0.1 ml) daily from the day of induction (day 0) to termination (day 6). Controls were dosed with 0.1 ml 2.5% hyaluronan alone.
as §2, with “tetrahydrocortisone and” for “tetrahydrocortisone,”, “was” for “and tetrahydrocortisone (TH-E) were”, “with” for “(1 mg/kg) in”, “ml of composition 0.1-1.0 mg of tetrahydrocortisol/kg) by weight” for “ml)”

[3] = test system: established 7-day old vasculature of the murine chronic granulomatous air pouch; assay: Established 7-day old vasculature of the murine chronic granulomatous air pouch, s.c. dosing from day 7 to day 14 or 21; assay type: in vivo, mice; settings: for Vascular Index: Table 3
Experimental: as §1
Investigation of the action of tetrahydrocortisol, tetrahydrocortisone and tetrahydrocortexolone and the like on the established 7-day old vasculature of the murine chronic granulomatous air pouch was pursued. Groups of mice were dosed with tetrahydrocortisol, tetrahydrocortisone or tetrahydrocortexolone or the like (0.1-3.0 mg/kg in 0.1 ml saline/0.01% DMSO, s.c) daily from day 7 to termination at day 14 or day 21. Controls were dosed with 0.1 ml saline (0.01% DMSO alone).

[4] = test system: murine chronic granulomatous air pouch; settings: s.c. at 1 mg/kg; reference (1); cited from earlier work
[5] = Table 1, 1 mg/kg s.c. daily day 0 to day 6
[6] = Table 2, 1.0 mg/kg s.c. daily day 0 to day 6

With C[C@]12CCC(=O)C=C1CC[C@@H]1[C@@H]2C(=O)C[C@@]2(C)[C@H]1CC[C@]2(O)C(=O)CO [Cortisone, cortisone] the “Vascular Index” value [1, 5] was 8.23 ± 0.62 µg/mg, the “angiostatic action” value [1] was “inactive” and the “effect on angiogenesis” value [2] was “angiostatic”.
With C[C@]12CCC(O)C[C@H]1CC[C@@H]1[C@@H]2C(=O)C[C@@]2(C)[C@H]1CC[C@]2(O)C(=O)CO (some centres unmarked) [TH-E, 5-pregnane-3,17,21-triol-11,20-dione] the “Vascular Index” value [1, 6] was 18.860 ± 1.830 µg/mg, the “angiostatic action” value [1] was “without effect” and the “effect on angiogenesis” value ([2]; listed as tetrahydrocortisone) was “significant acceleration of angiogenesis; also recorded: Definite angiogenesis action”. For the same compound, the “Vascular Index” value ([3]; 0.1 mg/kg s.c. daily from day 7, termination Day 14) was 18.18 ± 1.97 µg/mg, the “Vascular Index” value ([3]; 0.1 mg/kg s.c. daily from day 7, termination Day 21) was 18.59 ± 1.84 µg/mg and the “Vascular Index” value ([3]; 0.3 mg/kg s.c. daily from day 7, termination Day 14) was 20.38 ± 1.91 µg/mg. The “Vascular Index” value ([3]; 0.3 mg/kg s.c. daily from day 7, termination Day 21) was 31.33 ± 2.91 µg/mg, the “Vascular Index” value ([3]; 1.0 mg/kg s.c. daily from day 7, termination Day 14) was 22.49 ± 3.77 µg/mg and the “Vascular Index” value ([3]; 1.0 mg/kg s.c. daily from day 7, termination Day 21) was 25.75 ± 2.40 µg/mg. For the same compound, the “Vascular Index” value ([3]; 3.0 mg/kg s.c. daily from day 7, termination Day 14) was 18.87 ± 1.29 µg/mg, the “Vascular Index” value ([3]; 3.0 mg/kg s.c. daily from day 7, termination Day 21) was 25.91 ± 1.85 µg/mg and the “angiostatic action” value ([3]; s.c., no heparin, therapeutic dosing (Table 3)) was “without effect”. The “effect on angiogenesis” value [4] was “capable of inhibiting angiogenesis”.
For C[C@]12CCC(O)CC1CC[C@@H]1[C@@H]2C(O)C[C@@]2(C)[C@H]1CC[C@]2(O)C(=O)CO (some centres unmarked) [TH-F, 5-pregnane-3,11,17,21-tetrol-20-one], the “Vascular Index” value [1, 5] was 5.29 ± 0.61 µg/mg, the “Vascular Index” value [1, 6] was 13.088 ± 1.630 µg/mg and the “angiostatic action” value [1] was “decrease in vascularity”. For the same compound, the “effect on angiogenesis” value ([2]; listed as tetrahydrocortisol) was “significant acceleration of angiogenesis; also recorded: Definite angiogenesis action”, the “dose relation of acceleration of angiogenesis” value ([2]; topical in 2.5% hyaluronan, 0.1-1.0 mg/kg (Table 5)) was “dose related” and the “effect on angiogenesis” value [4] was “capable of inhibiting angiogenesis”.
In the case of C[C@]12CC[C@@H](O)C[C@H]1CC[C@@H]1[C@@H]2CC[C@@]2(C)[C@H]1CC[C@]2(O)C(=O)CO [TH-S, tetrahydrocortexolone], the “effect on angiogenesis” value [4] is listed as “capable of inhibiting angiogenesis”.
For heparin, the “Vascular Index” value ([1]; Table 1, 1000 U p.o.) was 7.93 ± 0.83 µg/mg.
With hyaluronan [HA] the “Vascular Index” value ([2]; Table 4) was 11.180 ± 1.980 µg/mg and the “Vascular Index” value ([2]; Table 5) was 11.180 ± 1.98 µg/mg.
